Laboratory results reported in patent US4758566A, “2-(1-piperazinyl)-4-substituted phenylquinoline derivatives, processes for the preparation thereof, and pharmaceutical composition containing the same” (Dainippon Pharmaceutical Co., Ltd., priority 1984, dated 1988).
Where a name gives a salt, the structure may show the parent alone.

Experiments:
[1] = tested on: ulceration induced by ethanol in rats; experiment: Effect on the ulceration induced by ethanol in rats (gastric cytoprotection activity), Test 1; type: in vivo, rat (male Wistar)
Experimental: Effect on the ulceration induced by ethanol in rats (gastric cytoprotection activity) This test was carried out according to the method of Robert [cf. […] Male Wistar rats weighing 190 g to 200 g were fasted for 24 hours and then given orally 1 ml of absolute ethanol. After 1 hour, the animals were sacrificed under ether anesthesia, and the stomachs were removed and cut along the greater curvature. The length (mm) of each lesion in the glandular portion was measured using a dissecting microscope (×12). The sum of the length (mm) of each lesion in a stomach was indicated as an ulcer index. The inhibitory rate was determined by comparing the ulcer index in drug-treated groups with that in control group. Test compounds were administered orally 30 minutes before the administration of ethanol. In the control group, a vehicle (a 0.5% tragacanth solution) was administered orally.

[2] = tested on: ulceration induced by exposure to stress (restraint and water immersion) in rats; experiment: Effect on the ulceration induced by exposure to stress (restraint and water immersion) in rats, Test 2; type: in vivo, rat (male Wistar); details: for inhibition in vivo at 10 mg/kg / Ulcer index: stress-induced ulcer
Experimental: Effect on the ulceration induced by exposure to stress (restraint and water immersion) in rats The effect evaluated by this test is considered to be fairly well correlative to inhibitory effect on gastric acid secretion. Male Wistar rats weighing about 200 g were used in groups of 5 animals each. According to the method of Takagi et al. [cf. Japan. […] After 20 hours, the animals were taken out from the water bath and sacrificed under ether anesthesia, and the stomachs were removed. The stomach was inflated with 13 ml of physiological saline and placed in a 5% formalin solution for 5 minutes. After washing with physiological saline, the stomach was cut along the greater curvature and the length (mm) of each lesion in the glandular portion was measured using a dissecting microscope (×12). The sum of the length (mm) of each lesion in a stomach was indicated as an ulcer index. The inhibitory rate was determined by comparing the ulcer index in drug-treated groups with that in control group. Test compounds were administered orally 30 minutes before the immersion. In the control group, a vehicle (a 0.5% tragacanth solution) was administered orally.

[3] = tested on: hypothermia induced by reserpine; experiment: Antireserpine activity (antagonistic effect on hypothermia induced by reserpine), Test 4; type: in vivo, mouse (male ddY); details: mouse
Experimental: Antireserpine activity (antagonistic effect on hypothermia induced by reserpine)
This test was carried out according to the method of Askew [cf. Life Sci., 2, 725 (1963)].
Male ddY mice weighing 22 g to 27 g were used in groups of 5 animals each. Test compounds were administered orally to the animals, and immediately 5 mg/kg of reserpine was injected intraperitoneally. Rectal temperature of each mouse was measured 4 hours later with a thermistor (Shibaura Electric, BMG III-130). The inhibitory rate was determined by comparing the fall of rectal temperature in drug-treated groups with that in control group. In the control group, a vehicle (a 0.5% tragacanth solution) was administered orally.

[4] = tested on: ulceration induced by pylorus-ligation (Shay ulcer) in rats; experiment: Effect on the ulceration induced by pylorus-ligation (Shay ulcer) in rats, Test 3; type: in vivo, rat (male Wistar); details: rat; for Ulcer index: index of 0 to 5
Experimental: Effect on the ulceration induced by pylorus-ligation (Shay ulcer) in rats […] The portion between pylorus and duodenum of each rat was ligated under ether anesthesia according to the method of Shay et al. […] Each of the animals was then allowed to stand abstained from food and water in a cage. After 18 hours, the animals were sacrificed under ether anesthesia, and the stomachs were removed and cut along the greater curvature. […] 0: no lesion 1: hemorrhage or erosion […] The inhibitory rate was determined by comparing the ulcer index in drug-treated groups with that in the control group. […] Test compounds were administered orally 30 minutes before the ligation. In the control group, a vehicle (a 0.5% tragacanth solution) was administered orally.

Male ddY mice = experiment: Acute toxicity, Test 5; type: in vivo, mouse (male ddY); details: 7 days; for Number of dead animals/number of used animals: mouse
From the text: Male ddY mice weighing 20 g to 25 g were used in groups of 10 animals each. Test compounds, dissolved or suspended in a 0.5% tragacanth solution, were orally administered at a prescribed dose to the animals.

[5] = U.S. Pat. No. 4,237,135; cited from earlier work
[6] = U.S. Pat. No. 4,237,135; cited from earlier work; remark: listed apart in the source
[7] = U.S. Pat. No. 4,237,135; cited from earlier work; remark: listed apart in the source
[8] = ethanol-induced ulcer, rat, 10 mg/kg p.o.
[9] = po, 1 h, ethanol-induced ulcer, rat, 10 mg/kg p.o., read-out: Inhibitory rate
[10] = po, 20 h, rat, 10 mg/kg p.o., read-out: Inhibitory rate

| SMILES | Ulcer index [1, 8] [mm] | inhibition in vivo at 10 mg/kg [1, 9] [%] | inhibition in vivo at 10 mg/kg [2, 10] [%] | Ulcer index ([2]; rat, 10 mg/kg p.o.) [mm] | Inhibitory rate ([3]; 100 mg/kg p.o.) [%] | further results |
| --- | --- | --- | --- | --- | --- | --- |
| O=C(O)/C=C\C(=O)O.O=C(O)/C=C\C(=O)O.OCCN1CCN(c2cc(-c3ccc(Cl)cc3)c3ccccc3n2)CC1 [G, 2-[4-(2-hydroxyethyl)-1-piperazinyl]-4-(4-chlorophenyl)quinoline dimaleate] | 10.8 ± 6.3 | 76.1 | 36.4 | 18.5 ± 6.9 | – | – |
| O=C(O)/C=C\C(=O)O.O=C(O)/C=C\C(=O)O.OCCCN1CCN(c2cc(-c3ccc(F)cc3)c3ccccc3n2)CC1 [B, 2-[4-(3-hydroxypropyl)-1-piperazinyl]-4-(4-fluorophenyl)quinoline dimaleate] | 21.9 ± 12.1 | 69.2 | 61.7 | 7.4 ± 1.2 | 59.4 | – |
| CN/C(=N/CCSCc1nc[nH]c1C)NC#N [Cimetidine, reference compound] | – | – | – | – | – | inhibition in vivo at 100 mg/kg ([1]; Rattus norvegicus, po, 1 h, read-out: Inhibitory rate): 25.1%; Ulcer index ([1]; ethanol-induced ulcer, rat, 100 mg/kg p.o.): 23.9 ± 8.2 mm; protective effect on the ethanol-induced ulceration (in words) ([1]; rat, 100 mg/kg p.o.): did not exhibit any significant protective effect; inhibition in vivo at 20 mg/kg ([2]; Rattus norvegicus, po, 20 h, read-out: Inhibitory rate): 39.1%; preventive effect on the stress-induced ulceration (in words) ([2]; rat, 20 mg/kg p.o.): did not exhibit any significant effect; Ulcer index ([2]; rat, 20 mg/kg p.o.): 15.1 ± 2.9 mm; Inhibitory rate ([4]; Shay ulcer, 50 mg/kg p.o.): 0%; Ulcer index ([4]; Shay ulcer, 50 mg/kg p.o.): 3.3 ± 0.3; Inhibitory rate ([4]; Shay ulcer, 100 mg/kg p.o.): 9.1%; Ulcer index ([4]; Shay ulcer, 100 mg/kg p.o.): 3 ± 0.5; Inhibitory rate ([4]; Shay ulcer, 200 mg/kg p.o.): 42.4%; Ulcer index ([4]; Shay ulcer, 200 mg/kg p.o.): 1.9 ± 0.4; Inhibitory rate ([4]; Shay ulcer, 500 mg/kg p.o.): 75.8%; Ulcer index ([4]; Shay ulcer, 500 mg/kg p.o.): 0.8 ± 0.2 |
| CCN1CCN(c2cc(-c3ccc(Cl)cc3)c3ccccc3n2)CC1.O=C(O)/C=C\C(=O)O.O=C(O)/C=C\C(=O)O [D, 2-(4-ethyl-1-piperazinyl)-4-(4-chlorophenyl)quinoline dimaleate] | 8.6 ± 4.5 | 89 | 54 | 13.4 ± 2.1 | 45.2 | – |
| O=C(O)/C=C\C(=O)O.O=C(O)/C=C\C(=O)O.OCCN1CCN(c2cc(-c3ccc(C(F)(F)F)cc3)c3ccccc3n2)CC1 [F, 2-[4-(2-hydroxyethyl)-1-piperazinyl]-4-(4-trifluoromethylphenyl)quinoline dimaleate] | 6.7 ± 1.8 | 87.2 | 41.6 | 19.8 ± 2.0 | – | – |
| Cl.Cl.OCCN1CCN(c2cc(-c3ccc(F)cc3)c3ccccc3n2)CC1 [A, 2-[4-(2-hydroxyethyl)-1-piperazinyl]-4-(4-fluorophenyl)quinoline dihydrochloride] | 9.8 ± 2.9 | 79.5 | 69.2 | 7.4 ± 3.6 | 65.5 | Ulcer index ([1]; ethanol-induced ulcer, rat, 5 mg/kg p.o.): 31.6 ± 11.3 mm; Ulcer index ([1]; ethanol-induced ulcer, rat, 20 mg/kg p.o.): 9.2 ± 4.1 mm; inhibition in vivo at 5 mg/kg ([1]; po, 1 h, ethanol-induced ulcer, rat, 5 mg/kg p.o., read-out: Inhibitory rate): 33.9%; inhibition in vivo at 20 mg/kg ([1]; po, 1 h, ethanol-induced ulcer, rat, 20 mg/kg p.o., read-out: Inhibitory rate): 80.8%; Inhibitory rate ([4]; Shay ulcer, 10 mg/kg p.o.): 33.3%; Ulcer index ([4]; Shay ulcer, 10 mg/kg p.o.): 2.4 ± 0.4; Inhibitory rate ([4]; Shay ulcer, 20 mg/kg p.o.): 44.4%; Ulcer index ([4]; Shay ulcer, 20 mg/kg p.o.): 2 ± 0.8; Inhibitory rate ([4]; Shay ulcer, 50 mg/kg p.o.): 61.1%; Ulcer index ([4]; Shay ulcer, 50 mg/kg p.o.): 1.4 ± 0.2; Inhibitory rate ([4]; Shay ulcer, 100 mg/kg p.o.): 66.7%; Ulcer index ([4]; Shay ulcer, 100 mg/kg p.o.): 1.2 ± 0.2; ED50 ([4]; po, 18 h, Shay ulcer, graphic method, read-out: ED50 (dose required to inhibit ulcer index by 50%)): 26.5 mg/kg; potency relative to cimetidine in preventive effect on Shay ulcer ([4]; p.o., vs cimetidine): about 10 times; Inhibitory rate ([3]; 50 mg/kg p.o.): 20.6%; death of mouse (in words) (Male ddY mice; 250 mg/kg p.o.): death of mouse was not observed; Number of dead animals/number of used animals (Male ddY mice; 250 mg/kg p.o.): 0/10; Number of dead animals/number of used animals (Male ddY mice; 500 mg/kg p.o.): 2/10; Number of dead animals/number of used animals (Male ddY mice; 1000 mg/kg p.o.): 5/10 |
| CCN1CCN(c2cc(-c3cccc(C(F)(F)F)c3)c3ccccc3n2)CC1.O=C(O)/C=C\C(=O)O.O=C(O)/C=C\C(=O)O [I, 2-(4-ethyl-1-piperazinyl)-4-(3-trifluoromethylphenyl)quinoline dimaleate] | 16.5 ± 3.9 | 63.5 | 20.1 | 27.1 ± 2.2 | – | – |
| O=C(O)/C=C\C(=O)O.O=C(O)/C=C\C(=O)O.OCCN1CCN(c2cc(-c3cccc(C(F)(F)F)c3)c3ccccc3n2)CC1 [J, 2-[4-(2-hydroxyethyl)-1-piperazinyl]-4-(3-trifluoromethylphenyl)quinoline dimaleate] | 9.0 ± 4.2 | 74.8 | -2.7 | 34.8 ± 3.9 | – | – |
| FC(F)(F)c1cccc(-c2cc(N3CCNCC3)nc3ccccc23)c1.O=C(O)/C=C\C(=O)O.O=C(O)/C=C\C(=O)O [H, 2-(1-piperazinyl)-4-(3-trifluoromethylphenyl)quinoline dimaleate] | 7.1 ± 1.9 | 84.3 | 4.3 | 24.7 ± 3.6 | – | – |
| CCN1CCN(c2cc(-c3ccccc3)c3ccccc3n2)CC1 [2-(4-ethyl-1-piperazinyl)-4-phenylquinoline] | – | – | – | – | – | antireserpine activity [5]: have an antireserpine activity; inhibitory effect on spontaneous locomotor activity [6]: inhibitory effect on spontaneous locomotor activity; antitremorine activity [7]: have also antitremorine activity |
| Cc1ccc(-c2cc(N3CCN(CCO)CC3)nc3ccccc23)cc1.O=C(O)/C=C\C(=O)O.O=C(O)/C=C\C(=O)O [E, 2-[4-(2-hydroxyethyl)-1-piperazinyl]-4-(4-methylphenyl)quinoline dimaleate] | 12.0 ± 2.3 | 64.4 | 69.7 | 11.8 ± 4.6 | 51.3 | – |
| Clc1ccc(-c2cc(N3CCNCC3)nc3ccccc23)cc1.O=C(O)/C=C\C(=O)O [C, 2-(1-piperazinyl)-4-(4-chlorophenyl)quinoline maleate] | 4.5 ± 3.7 | 87.4 | 65.6 | 8.5 ± 2.9 | 64.3 | – |
| CN(C)CCCN1c2ccccc2CCc2ccccc21 [Imipramine hydrochloride, reference compound] | – | – | – | – | 94.5 | Inhibitory rate ([3]; 10 mg/kg p.o.): 29.5%; Inhibitory rate ([3]; 30 mg/kg p.o.): 69.3% |
